Measurements reported in patent publication US20030059788A1, “Genetic markers of toxicity, preparation and uses thereof” (priority 2002, published 2003).
Read-outs that look alike come from different tables or passages of the source. Numbered stars: 1 amine (or outer) side, 2 acyl side, 3 side chain; on linkers, the order of the positions; unused ones are H or OH. Bridge positions count the residues as written; N and C are the ends. Square brackets hold non-standard residues; d marks the D form. Peptide text beside a SMILES is read from it. I, II: the chains in the order shown. Actinocin(9to1) = Cc1c2oc3c(C)ccc(C(=O)[*:1])c3nc-2c(C(=O)[*:2])c(N)c1=O; NMeV = CN[C@H](C(=O)O)C(C)C; Sar = CNCC(=O)O

Tests used:
HepG2 cells [1] = test: cell viability test (MTT), concentration corresponding to an IC80; type: cell-based
Excerpt: (§1) HepG2 cells are then individually treated with different compounds with different levels of toxicity.

HepG2 cells [2] = test: hybridization of probes from treated HepG2 cells on filters with clones from qualitative screening of p53-induced apoptosis (toxicity index); type: cell-based; details: HepG2 cells treated at IC80 concentration, p53 apoptosis filter
Excerpt: as §1

[3] = HepG2 cells, exposure time 18 h
[4] = HepG2 cells, exposure time 18 h, read-out: Concentration (calculated by cell viability test MTT, corresponds to an IC80)

Structure (SMILES) | Concentration (calculated by cell viability test MTT, corresponds to an IC80) (HepG2 cells [1]; [3]) [µg/mL] | IC80 (HepG2 cells [1]; [4]) [µM] | further results
O=c1[nH]cc(F)c(=O)[nH]1 [5 FU] |  |  | IC80 (HepG2 cells [1]): 10 µM
Cc1c2oc3c(C)ccc(C(=O)N[C@@H]4C(=O)N[C@H](C(C)C)C(=O)N5CCC[C@H]5C(=O)N(C)CC(=O)N(C)[C@@H](C(C)C)C(=O)O[C@@H]4C)c3nc-2c(C(=O)N[C@@H]2C(=O)N[C@H](C(C)C)C(=O)N3CCC[C@H]3C(=O)N(C)CC(=O)N(C)[C@@H](C(C)C)C(=O)O[C@@H]2C)c(N)c1=O [Actinomycin D] (I: T[dV]P[Sar][NMeV] / II: T[dV]P[Sar][NMeV]; ester I:1-I:C, II:1-II:C; linker I:N-II:N via Actinocin(9to1)) | 0.02 |  | 
C[C@H]1C[C@H]2[C@@H]3CCC4=CC(=O)C=C[C@]4(C)[C@@]3(Cl)[C@@H](O)C[C@]2(C)[C@@]1(O)C(=O)CO [Beclomethazone] |  | 0.05 | 
C[C@@H]1C[C@@H]([C@H](O)CC2CC(=O)NC(=O)C2)C(=O)[C@@H](C)C1 [Cycloheximide] | 5 |  | 
O=C(O)Cc1ccccc1Nc1c(Cl)cccc1Cl [Diclofenac] |  |  | splicing events identical to those induced by p53-related toxicity (toxicity index, FIG. 2) (HepG2 cells [2]): generates more splicing events identical to those induced by p53-related toxicity than aspirin
N#CC(C#N)=NNc1ccc(OC(F)(F)F)cc1 [FCCP] |  |  | IC80 (HepG2 cells [1]): 5 µM
OO [H2O2] |  | 100 | 
CCCCCCCCCCCCCC(=O)O[C@@H]1[C@@H](C)[C@@]2(O)[C@@H](C=C(CO)C[C@]3(O)C(=O)C(C)=C[C@@H]23)[C@@H]2C(C)(C)[C@]12OC(C)=O [PMA] | 1 |  | 
CN[C@@H]1C[C@H]2O[C@@](C)([C@@H]1OC)n1c3ccccc3c3c4c(c5c6ccccc6n2c5c31)C(=O)NC4 [Staurosporine] |  | 0.05 | 
CC(C)[C@@H]1NC(=O)[C@H](C)OC(=O)[C@@H](C(C)C)NC(=O)[C@@H](C(C)C)OC(=O)[C@H](C(C)C)NC(=O)[C@H](C)OC(=O)[C@@H](C(C)C)NC(=O)[C@@H](C(C)C)OC(=O)[C@H](C(C)C)NC(=O)[C@H](C)OC(=O)[C@@H](C(C)C)NC(=O)[C@@H](C(C)C)OC1=O [Valinomycin] |  | 0.015 | 
